Laboratory results taken from patent US7902373B2 (Pfizer Inc, priority 2006, dated 2011).

molecular target: human recombinant H-PGDS (Homo sapiens, UniProt O60760); assay: Fluorescence intensity h-PGDS TBA enzyme assay; assay type: biochemical; details: Examples up to 622 (and 3a, 3b)
Sequence (O60760 whole entry): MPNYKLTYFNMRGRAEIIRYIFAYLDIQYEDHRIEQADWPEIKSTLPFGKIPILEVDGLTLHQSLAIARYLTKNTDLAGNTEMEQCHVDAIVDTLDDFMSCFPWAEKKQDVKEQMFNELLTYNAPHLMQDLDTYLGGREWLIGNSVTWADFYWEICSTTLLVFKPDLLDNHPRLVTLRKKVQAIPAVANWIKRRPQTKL

| SMILES | IC50 |
| --- | --- |
| CS(=O)(=O)Nc1cccc(CN2CCC(NC(=O)c3ccc(-c4cccc(F)c4)nc3)CC2)c1 [Example 501, 6-(3-Fluorophenyl)-N-(1-{3-[(methylsulfonyl)amino]benzyl}piperidin-4-yl)nicotinamide] | 0.432 nM |
| O=C(NC1CCN(Cc2ccc3cc[nH]c3c2)CC1)c1ccc(-c2cccc(F)c2)nc1 [Example 502, 6-(3-Fluorophenyl)-N-[1-(1H-indol-6-ylmethyl)piperidin-4-yl]nicotinamide] | 1.99 nM |
| Cc1ccc(CN2CCC(NC(=O)c3ccc(-c4cccc(F)c4)nc3)CC2)c(F)c1 [Example 503, N-[1-(2-Fluoro-4-methylbenzyl)piperidin-4-yl]-6-(3-fluorophenyl)nicotinamide] | 2.7 nM |
| Cc1cc(C)n2nc(CN3CCC(NC(=O)c4ccc(-c5cccc(F)c5)nc4)CC3)nc2n1 [Example 504, N-{1-[(5,7-Dimethyl[1,2,4]triazolo[1,5-a]pyrimidin-2-yl)methyl]piperidin-4-yl}-6-(3-fluorophenyl)nicotinamide] | 2.84 nM |
| CC1(CN2CCC(NC(=O)c3ccc(-c4cccc(F)c4)nc3)CC2)CC1 [Example 505, 6-(3-Fluorophenyl)-N-{1-[(1-methylcyclopropyl)methyl]piperidin-4-yl}nicotinamide] | 0.418 nM |
| COc1cccc(-c2c(CN3CCC(NC(=O)c4ccc(-c5cccc(F)c5)nc4)CC3)cnn2C)c1 [Example 506, 6-(3-Fluorophenyl)-N-(1-{[5-(3-methoxyphenyl)-1-methyl-1H-pyrazol-4-yl]methyl}piperidin-4-yl)nicotinamide] | 1.25 nM |
| Cn1ncc(CN2CCC(NC(=O)c3ccc(-c4cccc(F)c4)nc3)CC2)c1-c1cccc(F)c1 [Example 507, 6-(3-Fluorophenyl)-N-(1-{[5-(3-fluorophenyl)-1-methyl-1H-pyrazol-4-yl]methyl}piperidin-4-yl)nicotinamide] | 0.551 nM |
| COc1ccccc1-c1c(CN2CCC(NC(=O)c3ccc(-c4cccc(F)c4)nc3)CC2)cnn1C [Example 508, 6-(3-Fluorophenyl)-N-(1-{[5-(2-methoxyphenyl)-1-methyl-1H-pyrazol-4-yl]methyl}piperidin-4-yl)nicotinamide] | 0.551 nM |
| Cc1ccccc1-c1c(CN2CCC(NC(=O)c3ccc(-c4cccc(F)c4)nc3)CC2)cnn1C [Example 509, 6-(3-Fluorophenyl)-N-(1-{[1-methyl-5-(2-methylphenyl)-1H-pyrazol-4-yl]methyl}piperidin-4-yl)nicotinamide] | 0.665 nM |
| Cc1ccc(-c2c(CN3CCC(NC(=O)c4ccc(-c5cccc(F)c5)nc4)CC3)cnn2C)cc1 [Example 510, 6-(3-Fluorophenyl)-N-(1-{[1-methyl-5-(4-methylphenyl)-1H-pyrazol-4-yl]methyl}piperidin-4-yl)nicotinamide] | 2.74 nM |
| CC1(CN2CCC(NC(=O)c3ccc(-c4cccc(F)c4)nc3)CC2)CCC1 [Example 511, 6-(3-Fluorophenyl)-N-{1-[(1-methylcyclobutyl)methyl]piperidin-4-yl}nicotinamide] | 1.09 nM |
| O=C(NC1CCN(Cc2n[nH]c3ccc(Cl)cc23)CC1)c1ccc(-c2cccc(F)c2)nc1 [Example 512, N-{1-[(5-Chloro-1H-indazol-3-yl)methyl]piperidin-4-yl}-6-(3-fluorophenyl)nicotinamide] | 0.391 nM |
| O=C(NC1CCN(Cc2n[nH]c3ccccc23)CC1)c1ccc(-c2cccc(F)c2)nc1 [Example 513, 6-(3-Fluorophenyl)-N-[1-(1H-indazol-3-ylmethyl)piperidin-4-yl]nicotinamide] | 0.363 nM |
| O=C1COc2ncc(CN3CCC(NC(=O)c4ccc(-c5cccc(F)c5)nc4)CC3)cc2N1 [Example 514, 6-(3-Fluorophenyl)-N-{1-[(2-oxo-2,3-dihydro-1H-pyrido[2,3-b][1,4]oxazin-7-yl)methyl]piperidin-4-yl}nicotinamide] | 0.348 nM |
| COc1ccc(C)cc1CN1CCC(NC(=O)c2ccc(-c3cccc(F)c3)nc2)CC1 [Example 515, 6-(3-Fluorophenyl)-N-[1-(2-methoxy-5-methylbenzyl)piperidin-4-yl]nicotinamide] | 1.1 nM |
